The values below come from patent publication US9598387B2 (Southern Research Institute, priority 2012, dated 2017).

Experiment [1] addresses human D3 dopamine receptor (Homo sapiens (Human), UniProt P35462). In words: Radioligand binding (125I-IABN competition), D3. To be noted: for Ki: 125I-IABN competition, HEK cell membranes expressing human D3; for D2/D3 (D3 selectivity ratio, D2 Ki/D3 Ki): calculated D2 Ki/D3 Ki. The protocol:
(§1) The affinities of the target compounds were determined using radioligand binding experiments. […] Competition curves were modeled for a single site. Data from competition dose-response curves were analyzed using Tablecurve program (Jandel). IC50 values were converted to equilibrium dissociation constants (Ki values) using the Cheng and Prusoff correction.

The target of experiment [2] is human D2-long dopamine receptor (Homo sapiens (Human), UniProt P14416). In words: Radioligand binding (125I-IABN competition), D2. To be noted: HEK cell membranes expressing human D2-long. The protocol: as §1
human D2-long dopamine receptor, sequence (P14416 whole entry): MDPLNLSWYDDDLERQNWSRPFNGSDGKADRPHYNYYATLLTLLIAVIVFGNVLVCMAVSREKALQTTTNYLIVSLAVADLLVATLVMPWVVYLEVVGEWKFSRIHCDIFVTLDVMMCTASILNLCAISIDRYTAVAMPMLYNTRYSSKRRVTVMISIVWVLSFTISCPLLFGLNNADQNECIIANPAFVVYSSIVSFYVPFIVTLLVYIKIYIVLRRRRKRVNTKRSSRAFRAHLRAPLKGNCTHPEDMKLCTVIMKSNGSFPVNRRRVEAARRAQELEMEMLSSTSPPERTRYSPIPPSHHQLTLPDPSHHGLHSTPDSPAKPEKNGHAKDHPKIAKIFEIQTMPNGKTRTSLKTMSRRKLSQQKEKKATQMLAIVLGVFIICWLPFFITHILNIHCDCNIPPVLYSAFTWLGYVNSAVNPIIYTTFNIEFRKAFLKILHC

human D3 dopamine receptor, sequence (P35462 whole entry): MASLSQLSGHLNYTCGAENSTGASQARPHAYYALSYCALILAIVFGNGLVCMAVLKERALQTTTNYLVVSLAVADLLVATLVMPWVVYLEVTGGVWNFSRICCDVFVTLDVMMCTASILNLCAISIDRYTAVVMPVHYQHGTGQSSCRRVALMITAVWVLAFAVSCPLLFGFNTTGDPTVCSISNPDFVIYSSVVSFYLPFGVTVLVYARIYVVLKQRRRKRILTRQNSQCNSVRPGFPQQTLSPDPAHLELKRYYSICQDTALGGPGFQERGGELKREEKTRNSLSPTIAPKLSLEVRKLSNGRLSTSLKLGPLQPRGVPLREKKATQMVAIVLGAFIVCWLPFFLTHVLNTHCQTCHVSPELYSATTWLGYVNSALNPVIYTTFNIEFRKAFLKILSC

What is called Ki is a dissociation constant, usually derived from enzyme kinetics or from competition with a known ligand. Low readings indicate a stronger hold on the target, high ones a looser hold on the target. Take `CC(C)(C)c1nc(N2CCN(CCCCNC(=O)N3CCN(c4ccccc4)C(=O)C3)CC2)cc(C(F)(F)F)n1` [Compound 102, N-(4-(4-(2-(tert-Butyl)-6-(trifluoromethyl)pyrimidin-4-yl)piperazin-1-yl)butyl)-3-oxo-4-phenylpiperazine-1-carboxamide]: the Ki in experiment [1] is 0.0192 µM; in experiment [2], 0.962 µM. Besides, the “D2/D3 (D3 selectivity ratio, D2 Ki/D3 Ki)” value in experiment [1] was 50.

Regarding `CC(C)(C)c1nc(N2CCN(CCCCNC(=O)c3cn4ccccc4n3)CC2)c2ccccc2n1` [Compound 123, N-(4-(4-(2-(tert-Butyl)quinazolin-4-yl)piperazin-1-yl)butyl)imidazo[1,2-a]pyridine-2-carboxamide], the figures for the Ki in experiment [1] and in experiment [2] were 0.0782 ± 0.0192 µM and 1.45 ± 0.275 µM, respectively.

On to `CC(C)(C)c1nc(N2CCN(CCCCNC(=O)N3CCC(O)(c4ccc(Cl)cc4)CC3)CC2)cc(C(F)(F)F)n1` [Compound 79, N-(4-(4-(2-(tert-Butyl)-6-(trifluoromethyl)pyrimidin-4-yl)piperazin-1-yl)butyl)-4-(4-chlorophenyl)-4-hydroxypiperidine-1-carboxamide], for which, in experiment [1], the Ki came to 0.0518 ± 0.0114 µM and the “D2/D3 (D3 selectivity ratio, D2 Ki/D3 Ki)” value is given as 16. In experiment [2], this compound showed a Ki of 0.834 ± 0.133 µM.

Turning to `CC(C)(C)c1nc(N2CCN(CCCCNC(=O)N3CCCN(c4ccccc4)CC3)CC2)cc(C(F)(F)F)n1` [Compound 81, N-(4-(4-(2-(tert-Butyl)-6-(trifluoromethyl)pyrimidin-4-yl)piperazin-1-yl)butyl)-4-phenyl-1,4-diazepane-1-carboxamide], in experiment [1], the Ki worked out at 0.0442 ± 0.0082 µM and the “D2/D3 (D3 selectivity ratio, D2 Ki/D3 Ki)” value is 11. In addition, the Ki in experiment [2] worked out at 0.507 ± 0.0166 µM.

Consider `CC(C)(C)c1nc(N2CCN(CCCCNC(=O)N3CCN(c4cc(C(F)(F)F)nc(C(C)(C)C)n4)CC3)CC2)cc(C(F)(F)F)n1` [Compound 62, 4-(2-(tert-Butyl)-6-(trifluoromethyl)pyrimidin-4-yl)-N-(4-(4-(2-(tert-butyl)-6-(trifluoromethyl)pyrimidin-4-yl)piperazin-1-yl)butyl)piperazine-1-carboxamide], for which, in experiment [1], the affinity, expressed as Ki, was 0.106 ± 0.0055 µM and the “D2/D3 (D3 selectivity ratio, D2 Ki/D3 Ki)” value is reported as 14. The same compound registered a Ki in experiment [2] of 1.52 ± 0.344 µM.

On to `O=C(NCCCCN1CCN(c2ccc3ccccc3n2)CC1)N1CCN(c2ccccc2)CC1` [Compound 84, 4-Phenyl-N-(4-(4-(quinolin-2-yl)piperazin-1-yl)butyl)piperazine-1-carboxamide], for which, in experiment [1], the affinity corresponds to a Ki of 0.0957 ± 0.0146 µM and the “D2/D3 (D3 selectivity ratio, D2 Ki/D3 Ki)” value was 27. The compound also showed a Ki in experiment [2] of 2.61 ± 0.0791 µM.

For the compound `CC(C)(C)c1nc(N2CCN(CCCCNC(=O)N3CCN(c4ccnc5cc(Cl)ccc45)CC3)CC2)cc(C(F)(F)F)n1` [Compound 63, N-(4-(4-(2-(tert-Butyl)-6-(trifluoromethyl)pyrimidin-4-yl)piperazin-1-yl)butyl)-4-(7-chloroquinolin-4-yl)piperazine-1-carboxamide], in experiment [1], the Ki was found to be 0.0192 ± 0.0036 µM and the “D2/D3 (D3 selectivity ratio, D2 Ki/D3 Ki)” value was 19. This compound also yielded a Ki in experiment [2] of 0.359 ± 0.0458 µM.

For `CC(C)(C)c1nc(N2CCN(CCCCNC(=O)N3CCN(c4ccnc5ccccc45)CC3)CC2)cc(C(F)(F)F)n1` [Compound 34, N-(4-(4-(2-(tert-Butyl)-6-(trifluoromethyl)pyrimidin-4-yl)piperazin-1-yl)butyl)-4-(quinolin-4-yl)piperazine-1-carboxamide], the results for the inhibition constant Ki in experiment [1] and in experiment [2] were 0.0127 ± 0.0025 µM and 0.524 ± 0.0422 µM, respectively. Moreover, the “D2/D3 (D3 selectivity ratio, D2 Ki/D3 Ki)” value in experiment [1] is on record as 41.

As for `Cc1cccc(N2CCN(C(=O)NCCCCN3CCN(c4cc(C(F)(F)F)nc(C(C)(C)C)n4)CC3)CC2)c1` [Compound 22, N-(4-(4-(2-(tert-Butyl)-6-(trifluoromethyl)pyrimidin-4-yl)piperazin-1-yl)butyl)-4-(m-tolyl)piperazine-1-carboxamide], in experiment [1], the Ki is 0.0247 ± 0.0054 µM and the “D2/D3 (D3 selectivity ratio, D2 Ki/D3 Ki)” value was 38. The same compound registered a Ki in experiment [2] of 0.928 ± 0.231 µM.

On to `O=C(NCCCCN1CCN(c2ncnc3ccccc23)CC1)c1cn2ccccc2n1` [Compound 127, N-(4-(4-(Quinazolin-4-yl)piperazin-1-yl)butyl)imidazo[1,2-a]pyridine-2-carboxamide], for which, in experiment [1], the Ki amounted to 0.253 µM and the “D2/D3 (D3 selectivity ratio, D2 Ki/D3 Ki)” value is given as 4. Moreover, the Ki in experiment [2] is 1.13 ± 0.0638 µM.

As to `CC(C)(C)c1nc(N2CCN(CCCCNC(=O)N3CCN(Cc4ccccc4)CC3)CC2)cc(C(F)(F)F)n1` [Compound 36, 4-Benzyl-N-(4-(4-(2-(tert-butyl)-6-(trifluoromethyl)pyrimidin-4-yl)piperazin-1-yl)butyl)piperazine-1-carboxamide], in experiment [1], the Ki was determined as 0.0167 ± 0.0044 µM and the “D2/D3 (D3 selectivity ratio, D2 Ki/D3 Ki)” value is 32. Further, the affinity in experiment [2] corresponds to a Ki of 0.53 ± 0.045 µM.

Regarding `Cc1nc(N2CCN(CCCCNC(=O)N3CCc4[nH]c5ccc(C(F)(F)F)cc5c4C3)CC2)cc(C(C)(C)C)n1` [Compound 98, N-(4-(4-(6-(tert-Butyl)-2-methylpyrimidin-4-yl)piperazin-1-yl)butyl)-8-(trifluoromethyl)-3,4-dihydro-1H-pyrido[4,3-b]indole-2(5H)-carboxamide], in experiment [1], the affinity corresponds to a Ki of 1.02 ± 0.201 µM and the “D2/D3 (D3 selectivity ratio, D2 Ki/D3 Ki)” value is recorded as 6. In addition, the affinity in experiment [2] corresponds to a Ki of 6.41 ± 1.1 µM.

Turning to `Cc1nnc2n1CCN(C(=O)NCCCCN1CCN(c3cc(C(F)(F)F)nc(C(C)(C)C)n3)CC1)C2` [Compound 87, N-(4-(4-(2-(tert-Butyl)-6-(trifluoromethyl)pyrimidin-4-yl)piperazin-1-yl)butyl)-3-methyl-5,6-dihydro-[1,2,4]triazolo[4,3-a]pyrazine-7(8H)-carboxamide], in experiment [1], the Ki was determined as 0.0283 ± 0.0053 µM and the “D2/D3 (D3 selectivity ratio, D2 Ki/D3 Ki)” value is listed as 14. In experiment [2], this compound registered a Ki of 0.382 ± 0.091 µM.

As for `CC(C)(C)c1nc(N2CCN(CCCCNC(=O)N3CCc4[nH]c5ccc(Cl)cc5c4C3)CC2)cc(C(F)(F)F)n1` [Compound 91, N-(4-(4-(2-(tert-Butyl)-6-(trifluoromethyl)pyrimidin-4-yl)piperazin-1-yl)butyl)-8-chloro-3,4-dihydro-1H-pyrido[4,3-b]indole-2(5H)-carboxamide], in experiment [1], the Ki is 0.2 ± 0.0476 µM and the “D2/D3 (D3 selectivity ratio, D2 Ki/D3 Ki)” value was 6. The same compound registered a Ki in experiment [2] of 1.21 ± 0.211 µM.

For the compound `CC(C)(C)c1nc(N2CCN(CCCCNC(=O)N3CCN(C4CC4)CC3c3ccccc3)CC2)cc(C(F)(F)F)n1` (stereo not shown) [Compound 80, N-(4-(4-(2-(tert-Butyl)-6-(trifluoromethyl)pyrimidin-4-yl)piperazin-1-yl)butyl)-4-cyclopropyl-2-phenylpiperazine-1-carboxamide], in experiment [1], the Ki is 0.118 ± 0.0201 µM and the “D2/D3 (D3 selectivity ratio, D2 Ki/D3 Ki)” value is on record as 7. The compound also had a Ki in experiment [2] of 0.863 ± 0.135 µM.

For `CC(C)(C)c1nc(N2CCN(CCCCNC(=O)C3CCN(Cc4ccccc4)CC3)CC2)cc(C(F)(F)F)n1` [Compound 109, 1-Benzyl-N-(4-(4-(2-(tert-butyl)-6-(trifluoromethyl)pyrimidin-4-yl)piperazin-1-yl)butyl)piperidine-4-carboxamide], the inhibition constant Ki in experiment [1] was determined as 0.0356 ± 0.0014 µM; in experiment [2], 0.337 µM.

On to `CC(C)(C)c1nc(N2CCN(CCCCNC(=O)N3CCC(n4c(=O)[nH]c5ccccc54)CC3)CC2)cc(C(F)(F)F)n1` [Compound 53, N-(4-(4-(2-(tert-Butyl)-6-(trifluoromethyl)pyrimidin-4-yl)piperazin-1-yl)butyl)-4-(2-oxo-2,3-dihydro-1H-benzo[d]imidazol-1-yl)piperidine-1-carboxamide], for which the Ki amounted to 0.0352 ± 0.0082 µM in experiment [1] and 0.713 ± 0.0783 µM in experiment [2]. In addition, the “D2/D3 (D3 selectivity ratio, D2 Ki/D3 Ki)” value in experiment [1] is on record as 20.
